For experiment [1], the target named is T1, DP receptor (Homo sapiens, UniProt Q13258).
T1 construct: Blood was collected from the cubital vein of a healthy adult; endogenous in cells; host or cells: human platelets (platelet-rich plasma of a healthy adult donor)
T1 sequence (Q13258 1-359): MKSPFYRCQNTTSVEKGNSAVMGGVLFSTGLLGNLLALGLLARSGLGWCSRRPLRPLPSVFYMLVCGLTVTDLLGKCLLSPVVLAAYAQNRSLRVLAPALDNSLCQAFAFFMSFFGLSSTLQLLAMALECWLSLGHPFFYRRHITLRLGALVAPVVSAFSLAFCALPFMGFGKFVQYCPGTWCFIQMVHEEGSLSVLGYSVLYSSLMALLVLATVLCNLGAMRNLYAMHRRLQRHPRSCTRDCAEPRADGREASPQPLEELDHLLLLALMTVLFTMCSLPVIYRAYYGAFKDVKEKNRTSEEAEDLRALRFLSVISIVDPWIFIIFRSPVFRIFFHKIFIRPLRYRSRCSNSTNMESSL
In words: Measurement of DP receptor antagonistic activity using human platelet-rich plasma (PRP); inhibition of PGD2-stimulated cAMP production. The format is cell-based. The note with it: for IC50: human PRP, 3 μmol/L PGD2 stimulation; for binding activity against the DP receptor compared with the non-substituted compound (Comparative compound 1): in words. Here is the method:
The collected blood was subjected to centrifugal separation at 100 G, at room temperature for 15 minutes to obtain PRP in the upper layer. EDTA was added to the obtained PRP so that the final concentration thereof to be about 10 mmol/L. The PRP was subjected to centrifugal separation at 1500 G, at room temperature for 15 minutes to obtain supernatant platelet poor plasma (PPP). After the obtained platelet pellets were suspended, the suspension was diluted with PPP so that the platelet density to be adjusted to 5.0×10^5/μL. To the obtained platelet suspension, 3-isobutyl-1-methylxanthine and prostanoid EP3 receptor antagonist were added so that the final concentrations thereof to be 8 mmol/L and 1 μmol/L, respectively.
297 μL of the prepared PRP was dispensed to each test tube, followed by subjecting to incubation at 37° C. for 5 minutes. After adding 1.5 μL of DMSO or a variety of concentrations of the compound of the present invention, 10 minutes of incubation was carried out at 37° C. 1.5 μL, of DMSO or PGD2 (final concentration: 3 μmol/L) was added thereto to initiate the reaction. After 15 minutes of incubation was carried out at 37° C., […] of ice-cooled 10% trichloroacetic acid (TCA) was added thereto to terminate the reaction. The TCA-treated sample was subjected to centrifugal separation at 15,000 G for 3 minutes at 4° C. The concentration of thus obtained supernatant cAMP was measured by enzyme immunoassay using cAMP EIA system (Amersham plc). 300 μL of the supernatant obtained above was mixed with 600 μL, of a solution of 0.5 mol/L tri-n-octylamine in chloroform. After extracting TCA in the organic layer, the cAMP content in the water layer sample was measured according to the method described in cAMP assay kit.

For experiment [2], the target named is T2, prostanoid receptor subtype (human EP2) (Homo sapiens, UniProt P43116).
T2 construct: expressed in transfected cells; host or cells: CHO cells
T2 sequence (P43116 whole entry): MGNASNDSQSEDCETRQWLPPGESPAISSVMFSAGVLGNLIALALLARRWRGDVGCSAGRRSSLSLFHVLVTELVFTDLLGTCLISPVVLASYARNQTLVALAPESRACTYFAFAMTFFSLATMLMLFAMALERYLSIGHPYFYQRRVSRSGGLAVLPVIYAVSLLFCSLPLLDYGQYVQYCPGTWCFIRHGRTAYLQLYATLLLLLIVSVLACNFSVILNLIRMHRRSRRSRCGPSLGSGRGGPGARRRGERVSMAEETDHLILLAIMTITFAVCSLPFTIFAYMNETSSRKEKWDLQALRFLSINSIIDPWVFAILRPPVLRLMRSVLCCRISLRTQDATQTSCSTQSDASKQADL
As to the kind of experiment: Receptor binding experiment using prostanoid receptor subtype expressing cell (3H-PGE2, CHO cell membrane). Conditions: 3H-PGE2 2.5 nM, read-out: Ki, EP2 receptor binding (3H-PGE2 binding inhibition). Here is the method: According to the method of Sugimoto et. al. (J. Biol. Chem. 267, 6463-6466 (1992)), CHO cells in which prostanoid receptor subtype (human EP2) was expressed were prepared to obtain membrane preparation.
A reaction solution (200 μl) containing membrane fraction preparation (0.5 mg/ml) and ^3H-PGE2 was incubated at room temperature for one hour. The reaction was terminated by ice-cooled buffer (3 ml), bound ^3H-PGE2 was trapped on a glass filter (GF/B) by suction filtration at reduced pressure, and bound radioactivity was measured by a liquid scintillator.
The Kd value was calculated from Scatchard plots [Ann. N.Y. Acad. Sci. 51, 660 (1949)]. Nonspecific binding was determined as a bond in the presence of excessive amount (10 μM) of unlabeled PGE2. The measurement of ^3H-PGE2 binding inhibitory effect by the compound of the present invention was carried out by adding ^3H-PGE2 (2.5 nM) and the compound of the present invention at a variety of concentrations. Note that all reactions used the following buffer.
Buffer: potassium phosphate (10 mM, pH 6.0), EDTA (1 mM), MgCl2 (10 mM), NaCl (0.1 M).
Dissociation constant (Ki (μM)) of each compound was calculated from the following equation. Ki=IC50/(1+([C]/Kd) • IC50: Concentration of the compound of the present invention required for 50%-inhibition of [3H]PGE2 specific bond • C: Concentration of [3H]PGE2 • Kd: Dissociation constant of [3H]PGE2

Experiment [3] deals with T3, Human CYP3A4 (Homo sapiens, UniProt P08684).
T3 construct: purchased BD Gentest
T3 sequence (P08684 whole entry): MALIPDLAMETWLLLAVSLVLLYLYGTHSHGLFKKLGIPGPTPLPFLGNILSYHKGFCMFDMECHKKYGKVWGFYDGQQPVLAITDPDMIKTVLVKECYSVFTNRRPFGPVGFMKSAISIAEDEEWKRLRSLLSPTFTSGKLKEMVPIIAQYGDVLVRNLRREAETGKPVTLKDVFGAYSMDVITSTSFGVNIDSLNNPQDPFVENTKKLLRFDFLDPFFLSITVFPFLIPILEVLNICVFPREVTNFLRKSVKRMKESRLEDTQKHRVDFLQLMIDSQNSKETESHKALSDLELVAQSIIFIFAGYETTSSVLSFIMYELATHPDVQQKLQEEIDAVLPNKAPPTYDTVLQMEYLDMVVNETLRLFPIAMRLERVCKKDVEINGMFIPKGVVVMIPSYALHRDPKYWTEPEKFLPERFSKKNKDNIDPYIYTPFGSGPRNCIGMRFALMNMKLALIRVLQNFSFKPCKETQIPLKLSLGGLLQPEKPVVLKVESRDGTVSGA
As to the kind of experiment: Measurement of drug-metabolizing enzyme inhibitory activity (human CYP3A4 inhibitory effect), CYP3A4 expression system microsome, 7-BQ substrate. It is filed as in vitro ADME. The note with it: 7-benzyloxyquinoline substrate, 37° C., 30 minutes. Here is the method:
A solution of the test compound having a concentration five hundred times more than the evaluation concentration in ethanol, or ethanol was 125-fold diluted by water. 50 μL of the test compound solution or the ethanol solution (control) was added with CYP3A4 substrate (7-benzyloxyquinoline (7-BQ), 40 μmol/L), magnesium chloride solution (5 mmol/L), and 100 μL, of 200 mM potassium phosphate buffer solution (pH 7.4) containing CYP3A4 expression system microsome (BD Gentest, 0.25 mg/mL), and preincubated at 37° C. for 10 minutes, then added with 50 μL, of reduced nicotinamide adenine dinucleotide phosphate (NADPH, final concentration 1 mmol/L) and incubated at 37° C. for 30 minutes. Immediately after the addition of NADPH, and after incubation, the fluorescence intensity was measured for 7-hydroxyquinoline which is a metabolite of the substrate (excitation wavelength 409 nm, emission wavelength 530 nm). The inhibition ratio against the control was calculated by the equation below. Inhibition rate(%)=[1-{(fluorescence intensity of the test compound after incubation−fluorescence intensity of the test compound immediately after addition of NADPH)/(fluorescence intensity of control after incubation−fluorescence intensity of control immediately after the addition of NADPH)}]×100.
IC50 was calculated from the equation below. IC50(μmol/L)=(50−(D×A−C×B)/(D−C))/((B−A)/(D−C)) • A: Highest inhibition rate (%) which is less than 50%. • B: Lowest inhibition rate (%) which is more than 50%. • C: Concentration (μmol/L) of the test compound when the inhibition rate is A. • D: Concentration (μmol/L) of the test compound when the inhibition rate is B.

Regarding `Cc1cc(OC[C@@H]2CN(C)c3ccccc3O2)cc(C)c1C(=O)Nc1cccc(CC(=O)O)c1` [Comparative compound 1, (3-((2,6-dimethyl-4-(((2S)-4-methyl-3,4-dihydro-2H-1,4-benzoxazin-2-yl)methoxy)benzoyl)amino)phenyl)acetic acid], the values for the IC50 in experiment [1] and in experiment [3] were 0.021 µM and no less than 30 µM, respectively. Further, the Ki in experiment [2] was 0.0936 µM.

On to `Cc1ccc(CC(=O)O)cc1NC(=O)c1c(C)cc(OC[C@@H]2CN(C)c3ccccc3O2)cc1C` [Comparative compound 2, (3-((2,6-dimethyl-4-(((2S)-4-methyl-3,4-dihydro-2H-1,4-benzoxazin-2-yl)methoxy)benzoyl)amino)-4-methylphenyl)acetic acid], for which, in experiment [1], the “binding activity against the DP receptor compared with the non-substituted compound (Comparative compound 1)” value is reported as “more increased binding activity”. The compound also registered an IC50 in experiment [3] of less than 3 µM.

For the compound `Cc1cc(OC[C@@H]2CN(C)c3ccccc3O2)cc(C)c1C(=O)Nc1cc(CC(=O)O)ccc1Cl` [Comparative compound 3, (4-chloro-3-((2,6-dimethyl-4-(((2S)-4-methyl-3,4-dihydro-2H-1,4-benzoxazin-2-yl)methoxy)benzoyl)amino)phenyl)acetic acid], the half-inhibitory concentration (IC50) in experiment [1] is 0.004 µM; in experiment [3] it was 19.7 µM. The Ki in experiment [2] was found to be 0.0168 µM.

`Cc1cc(OC[C@@H]2CN(C)c3ccccc3O2)cc(C)c1C(=O)Nc1cc(C2(C(=O)O)CC2)ccc1Cl` [Comparative compound 4, 1-(4-chloro-3-((2,6-dimethyl-4-(((2S)-4-methyl-3,4-dihydro-2H-1,4-benzoxazin-2-yl)methoxy)benzoyl)amino)phenyl)cyclopropanecarboxylic acid]: in experiment [1], the concentration for half-maximal inhibition (IC50) came to 0.0065 µM and the “binding activity against the DP receptor compared with the non-substituted compound (Comparative compound 1)” value is “more increased binding activity”. Further, the inhibitory constant (Ki) in experiment [2] was 0.0018 µM. Besides, in experiment [3], the IC50 is no less than 30 µM.

Turning to `Cc1cc(OC[C@@H]2CN(C)c3ccccc3O2)cc(C)c1C(=O)Nc1cc(C2(C(=O)O)CC2)ccc1C(F)(F)F` [Example 12, 1-(3-((2,6-dimethyl-4-(((2S)-4-methyl-3,4-dihydro-2H-1,4-benzoxazin-2-yl)methoxy)benzoyl)amino)-4-(trifluoromethyl)phenyl)cyclopropanecarboxylic acid], the results for the IC50 in experiment [1] and in experiment [3] were 0.0071 µM and no less than 30 µM, respectively. Further, in experiment [2], the Ki came to 0.142 µM.

For `CCc1cc(OC[C@@H]2CN(C)c3ccccc3O2)cc(C)c1C(=O)Nc1cc(C2(C(=O)O)CC2)ccc1C(F)(F)F` [Example 21, 1-(3-((2-ethyl-6-methyl-4-(((2S)-4-methyl-3,4-dihydro-2H-1,4-benzoxazin-2-yl)methoxy)benzoyl)amino)-4-(trifluoromethyl)phenyl)cyclopropanecarboxylic acid], the concentration for half-maximal inhibition (IC50) is 0.0029 µM in experiment [1] and no less than 30 µM in experiment [3].

Consider `Cc1cc(OC[C@@H]2CN(C)c3ccccc3O2)cc(C)c1C(=O)Nc1cc(CC(=O)O)ccc1C(F)(F)F` [Example 24, (3-((2,6-dimethyl-4-(((2S)-4-methyl-3,4-dihydro-2H-1,4-benzoxazin-2-yl)methoxy)benzoyl)amino)-4-(trifluoromethyl)phenyl)acetic acid], for which the IC50 in experiment [1] is 0.0089 µM; in experiment [3] it was 8.4 µM.

(Values after US8476266B2, “Phenylacetic acid compound” (Ono Pharmaceutical Co., Ltd., priority 2007, dated 2013).)
